{"source": "patent US20210379070A1", "about": "“MALONATE SALT OF VARLITINIB” (Aslan Pharmaceuticals PTE LTD, priority 2018, published 2021)", "format_in_all_cases": "physicochemical", "key": {"[1]": {"test": "Thermal analysis (TG/DTA, DSC): onset of degradation", "settings": "TG/DTA (TGA)", "procedure": "Thermogravimetric Analysis (TGA)\nApproximately, 5 mg of material was accurately weighed into an open aluminium pan and loaded into a simultaneous thermogravimetric/differential thermal analyser (TG/DTA) and held at room temperature. The sample was then heated at a rate of 10° C./min from 25° C. to […] the change in sample weight was recorded along with any differential thermal events (DTA). Nitrogen was used as the purge gas, at a flow rate of 100 cm^3/min.\nDifferential Scanning calorimetry (DSC)\nApproximately, 5 mg of material was weighed into an aluminium DSC pan and sealed non-hermetically with a pierced aluminium lid. The sample pan was then loaded into a Seiko DSC6200 (equipped with a cooler). The sample and reference were heated to ca. 220° C. at a scan rate of 10° C./min and the resulting heat flow response monitored."}, "[2]": {"test": "Aqueous solubility (slurry in deionised water, 4 and 24 hours, room temperature, HPLC; solids by XRPD)", "settings": "for Solid form by XRPD after aqueous solubility slurry: 4 and 24 hours; for Aqueous solubility: room temperature", "procedure": "Slurries of each potential salt were created in deionised water and agitated for 4 and 24 hours at room temperature. After both 4 and 24 hours, the resulting solutions were analysed by HPLC and the concentration of material dissolved calculated. Remaining solids were analysed by XRPD to determine if any changes had occurred on slurrying."}, "[3]": {"test": "Salt disproportionation studies (slurry in water, XRPD at 1, 24 & 48 hours)", "settings": "room temperature, 1, 24 & 48 hours", "procedure": "Salt Disproportionation Studies\nEach potential salt was slurried in water at room temperature (ca. 22° C.), with the excess solid taken at 1, 24 & 48 hours and analysed by XRPD. The pH of the supernatant was also monitored."}, "[4]": {"test": "Dynamic Vapour Sorption (DVS)", "settings": "for Solid form by XRPD post DVS: after exposure to varying % RH; for DVS water uptake: between 20-70% RH", "procedure": "Dynamic Vapour Sorption (DVS)\nApproximately 10 mg of sample was placed into a mesh vapour sorption balance pan and loaded into a DVS-1 dynamic vapour sorption balance by Surface Measurement Systems. The sample was subjected to a ramping profile from 20-90% relative humidity (RH) at 10% increments maintaining the sample at each step until a stable weight had been achieved (99.5% step completion). After completion of the sorption cycle, the sample was dried using the same procedure, but all the way down to 0% RH and finally taken back to the starting point of 20% RH. The weight change during the sorption/desorption cycles were plotted, allowing for the hygroscopic nature of the sample to be determined."}, "[5]": {"test": "Thermodynamic solubility (slurry in media of pH 1, 4.5 and 6.8, ca. 48 hours, HPLC; solids by XRPD)", "settings": "for Solid form by XRPD after thermodynamic solubility slurry: pH 1, 4.5, 6.8 media", "procedure": "Slurries of each potential salt were created in media of pH 1; 4.5 and 6.8 and shaken for ca. 48 hours. The resulting solution was then analysed by HPLC and the concentration of material dissolved calculated. Remaining solids were analysed by XRPD to determine if any changes had occurred on slurrying."}, "[6]": {"test": "Hydration studies (slurry in acetone:water 3, 5 and 10% water, ca. 48 hours, XRPD)", "procedure": "Slurries of each potential salt were created in acetone:water mixtures (3, 5 and 10% water) and shaken for ca. 48 hours. The resulting solid was then analysed by XRPD to determine if any changes had occurred on slurrying."}, "[7]": {"test": "Stability (storage) testing, 1 week, XRPD", "settings": "for Storage testing (solid form by XRPD): ambient light, 40° C./75% RH and 80° C., 1 week", "procedure": "Each potential salt was exposed to environments of 40° C./75% RH, elevated temperature (80° C.) and ambient light (ca. 22° C. in a closed vial), for 1 week to determine stability. Resulting solids were analysed by XRPD to establish if any changes had occurred."}}, "note": "Entries after “also recorded” stand apart in the source; their conditions may differ.", "data": [{"smiles": "C[C@@H]1COC(Nc2ccc3ncnc(Nc4ccc(OCc5nccs5)c(Cl)c4)c3c2)=N1", "note": "[varlitinib, (R)—N4-[3-Chloro-4-(thiazol-2-ylmethoxy)-phenyl]-N6-(4-methyl-4,5,-dihydro-oxazol-2-yl)-quinazoline-4,6-diamine]", "values": [{"measurement": "Onset of degradation", "setting": "[1]", "result": "ca. 230 °C"}]}, {"smiles": "C[C@@H]1COC(Nc2ccc3ncnc(Nc4ccc(OCc5nccs5)c(Cl)c4)c3c2)=N1.O=C(O)CC(=O)O", "note": "[malonate salt]", "values": [{"measurement": "Solid form by XRPD after aqueous solubility slurry", "setting": "[2]", "result": "remain unchanged after slurrying"}, {"measurement": "Aqueous solubility", "setting": "[2]; 4 hours", "result": 494.7, "unit": "µg/mL"}, {"measurement": "Aqueous solubility", "setting": "[2]; 24 hours", "result": 603.6, "unit": "µg/mL"}, {"measurement": "Salt disproportionation on slurrying in water", "setting": "[3]", "result": "no form change of the malonate salt on slurrying in water; also recorded: No disproportionation or hydration observed"}, {"measurement": "Hygroscopicity", "setting": "[4]; DVS", "result": "non-hygroscopic"}, {"measurement": "Solid form by XRPD post DVS", "setting": "[4]", "result": "No change to the solid form; also recorded: no change in PXRD post DVS"}, {"measurement": "DVS water uptake", "setting": "[4]", "result": 0.14, "unit": "%"}, {"measurement": "DVS water uptake overall", "setting": "[4]", "result": 0.35, "unit": "%"}, {"measurement": "Solid form by XRPD after thermodynamic solubility slurry", "setting": "[5]", "result": "A change in solid form was observed by XRPD from pH1 and pH4.5"}, {"measurement": "Thermodynamic solubility", "setting": "[5]; pH1, ca. 48 hours", "result": 768.7, "unit": "µg/mL"}, {"measurement": "Thermodynamic solubility", "setting": "[5]; pH 4.5, ca. 48 hours", "result": 2.8, "unit": "µg/mL"}, {"measurement": "Thermodynamic solubility", "setting": "[5]; pH 6.8, ca. 48 hours", "result": 2, "unit": "µg/mL"}, {"measurement": "Hydration study (solid form after slurrying)", "setting": "[6]", "result": "remain unchanged after slurrying, indicating a low hydration risk; also recorded: No disproportionation or hydration observed"}, {"measurement": "Storage testing (solid form by XRPD)", "setting": "[7]", "result": "remained unchanged"}, {"measurement": "Overall stability in the secondary screen tests", "setting": "[7]; conclusion over all tests employed", "result": "good stability throughout the tests employed"}]}, {"smiles": "C[C@@H]1COC(Nc2ccc3ncnc(Nc4ccc(OCc5nccs5)c(Cl)c4)c3c2)=N1.O=C(O)/C=C\\C(=O)O", "note": "[maleate salt]", "values": [{"measurement": "Solid form by XRPD after aqueous solubility slurry", "setting": "[2]", "result": "remained unchanged after slurrying, with a potential increase in amorphous content"}, {"measurement": "Aqueous solubility", "setting": "[2]; 4 hours", "result": 257, "unit": "µg/mL"}, {"measurement": "Aqueous solubility", "setting": "[2]; 24 hours", "result": 408.9, "unit": "µg/mL"}, {"measurement": "Salt disproportionation on slurrying in water", "setting": "[3]", "result": "no change in form of the maleate salt on slurrying in water at 1 hr and 24 hrs. After 48 hrs the material was observed to be predominantly amorphous"}, {"measurement": "Solid form by XRPD post DVS", "setting": "[4]", "result": "remain unchanged"}, {"measurement": "DVS water uptake", "setting": "[4]", "result": 1.95, "unit": "%"}, {"measurement": "DVS water uptake overall", "setting": "[4]", "result": 2.84, "unit": "%"}, {"measurement": "Solid form by XRPD after thermodynamic solubility slurry", "setting": "[5]", "result": "A change in solid form was observed by XRPD from pH1 and pH4.5"}, {"measurement": "Thermodynamic solubility", "setting": "[5]; pH1, ca. 48 hours", "result": 1213.8, "unit": "µg/mL"}, {"measurement": "Thermodynamic solubility", "setting": "[5]; pH 4.5, ca. 48 hours", "result": 3.6, "unit": "µg/mL"}, {"measurement": "Thermodynamic solubility", "setting": "[5]; pH 6.8, ca. 48 hours", "result": "< 0.445", "unit": "µg/mL"}, {"measurement": "Hydration study (solid form after slurrying)", "setting": "[6]", "result": "remained unchanged after slurrying, indicating a low hydration risk"}, {"measurement": "Onset of degradation", "setting": "[1]", "result": "ca. 150 °C"}, {"measurement": "Storage testing (solid form by XRPD)", "setting": "[7]", "result": "remain unchanged"}]}]}
